Consider four compounds from ChEMBL document CHEMBL4825672, “Marine Bile Natural Products as Agonists of the TGR5 Receptor” (J Nat Prod, 2021).

In data set [1] the target is T1, G-protein coupled bile acid receptor 1 (Homo sapiens) (UniProt Q8TDU6).
T1 sequence (whole entry): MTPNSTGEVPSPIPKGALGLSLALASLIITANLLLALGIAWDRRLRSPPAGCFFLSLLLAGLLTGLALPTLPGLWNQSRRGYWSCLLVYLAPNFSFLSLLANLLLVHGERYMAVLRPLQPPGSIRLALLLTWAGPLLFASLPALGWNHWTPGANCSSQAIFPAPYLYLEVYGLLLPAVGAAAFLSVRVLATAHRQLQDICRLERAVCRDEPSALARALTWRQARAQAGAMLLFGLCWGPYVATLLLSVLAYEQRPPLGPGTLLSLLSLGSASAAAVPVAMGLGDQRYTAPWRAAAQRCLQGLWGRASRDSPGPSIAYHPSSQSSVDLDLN
The experiment in a line: Agonist activity at TGR5 (unknown origin) transfected in HEK293 cells assessed as increase in intracellular calcium level at 0.5 to 0.67 mM in presence of Galphaq inhibitor, UBO-QIC and in absence of extracellular calcium by Fura-2AM dye based fluorometric analysis. The data set is classed as functional, cell-based. The conditions noted are these: dose 0.5-0.67 mM. (Calcium assays in cells follow changes in intracellular calcium, usually with a dye or a luminescent sensor.)

Data set [2] concerns HEK293. The experiment in a line: Cytotoxicity against human HEK293 cells transfected with TGR5 assessed as reduction in cell viability at 1 mM measured after 2.5 hrs by MTS assay. The data set is classed as cell-based. Conditions: hek293, 2.5 h, 1000 µM.
Data set [3] has as its system HEK293. As to the kind of experiment: Induction of intracellular calcium level in human HEK293 cells at 0.5 to 0.67 mM in absence of extracellular calcium by Fura-2AM dye based fluorometric analysis. Conditions: dose 0.5-0.67 mM. The data set is classed as functional, cell-based.
Data set [4] addresses T1, G-protein coupled bile acid receptor 1 (Homo sapiens). As to the kind of experiment: Agonist activity at TGR5 (unknown origin) transfected in HEK293 cells assessed as increase in intracellular calcium level in absence of extracellular calcium by Fura-2AM dye based fluorometric analysis. The data set is classed as functional, cell-based. Conditions: filed as agonist, dose 0.5-0.67 mM.

Data set [5] shares this target. The experiment in a line: Agonist activity at TGR5 (unknown origin) transfected in HEK293 cells assessed as increase in intracellular calcium level at 1 mM in presence of Galphaq inhibitor, UBO-QIC and in absence of extracellular calcium by Fura-2AM dye based fluorometric analysis. The data set is classed as functional, cell-based.
For data set [6], the system named is HEK293. The experiment in a line: Induction of intracellular calcium level in human HEK293 cells at 1 mM in absence of extracellular calcium by Fura-2AM dye based fluorometric analysis. The data set is classed as functional, cell-based.
In data set [7] the test system is HEK293. As to the kind of experiment: Induction of intracellular calcium level in human HEK293 cells at 0.33 mM in presence of Galphaq inhibitor, UBO-QIC and in absence of extracellular calcium by Fura-2AM dye based fluorometric analysis. The data set is classed as functional, cell-based.
The subject of data set [8] is HEK293. As to the kind of experiment: Induction of intracellular calcium level in human HEK293 cells at 0.1 mM in presence of Galphaq inhibitor, UBO-QIC and in absence of extracellular calcium by Fura-2AM dye based fluorometric analysis. The data set is classed as functional, cell-based.
Data set [9] deals with HEK293. As to the kind of experiment: Induction of intracellular calcium level in human HEK293 cells at 0.1 to 0.33 mM in absence of extracellular calcium by Fura-2AM dye based fluorometric analysis. It is filed as functional, cell-based. The conditions noted are these: dose 0.1-0.33 mM.
In data set [10] the target is T1, G-protein coupled bile acid receptor 1 (Homo sapiens). The experiment in a line: Agonist activity at TGR5 (unknown origin) transfected in HEK293 cells assessed as increase in intracellular calcium level at 0.1 to 0.33 mM in absence of extracellular calcium by Fura-2AM dye based fluorometric analysis. The data set is classed as functional, cell-based. The conditions noted are these: filed as agonist, dose 0.1-0.33 mM.

For data set [11] the target is unchanged. The experiment in a line: Agonist activity at TGR5 (unknown origin) transfected in HEK293 cells assessed as increase in intracellular calcium level at 0.1 mM in presence of Galphaq inhibitor, UBO-QIC and in absence of extracellular calcium by Fura-2AM dye based fluorometric analysis. It is filed as functional, cell-based. The conditions noted are these: filed as agonist.

In data set [12] the test system is HEK293. As to the kind of experiment: Cytotoxicity against human HEK293 cells transfected with TGR5 assessed as reduction in cell viability at 0.33 to 0.5 mM measured after 2.5 hrs by MTS assay. It is filed as cell-based. The conditions noted are these: hek293, 2.5 h, 500 µM, dose 0.33-0.5 mM. A general note: Tetrazolium dyes change colour on reduction, which living cells bring about.

Data set [13] concerns the target T1, G-protein coupled bile acid receptor 1 (Homo sapiens). The experiment in a line: Agonist activity at TGR5 (unknown origin) transfected in HEK293 cells assessed as increase in intracellular calcium level at 0.33 mM in presence of Galphaq inhibitor, UBO-QIC and in absence of extracellular calcium by Fura-2AM dye based fluorometric analysis. It is filed as functional, cell-based.

Data set [14] deals with HEK293. The experiment in a line: Cytotoxicity against human HEK293 cells transfected with TGR5 assessed as reduction in cell viability at 0.67 mM measured after 2.5 hrs by MTS assay. The data set is classed as cell-based. The conditions noted are these: hek293, 2.5 h, 670 µM.

Molecules are shown by their SMILES. Active and inactive are the calls of the source. No cut-off for these calls is given here.

Take `C[C@H](CC[C@H](O)C(CO)CO)[C@H]1CC[C@H]2[C@@H]3[C@H](O)C[C@@H]4C[C@H](O)CC[C@]4(C)[C@H]3C[C@H](O)[C@]12C`: the outcome (in [1]; in the data set on HEK293 [3]) was inactive. Moreover, the values for the Activity result (with HEK293 [2]; in data set [4]) were “Toxic” and “Dose-Dependent Effect”, respectively.

For the compound `C[C@H](CC[C@H](O)C(CO)COS(=O)(=O)O)[C@H]1CC[C@H]2[C@@H]3[C@H](O)C[C@@H]4C[C@H](O)CC[C@]4(C)[C@H]3C[C@H](O)[C@]12C` (some centres not stated), in the data set on HEK293 [2], the Activity entry is given as “Non-Toxic”. For the same compound, the outcome (in data set [5]; with HEK293 [6]) was inactive.

`C[C@H](CCC(=O)O)[C@H]1CC[C@H]2[C@@H]3CC[C@@H]4C[C@H](O)CC[C@]4(C)[C@H]3C[C@H](O)[C@]12C` [DEOXYCHOLIC ACID]: the outcome (with HEK293 [7]; in data set [13]) was inactive. Besides, the outcome (in the data set on HEK293 [8]; in data set [11]) was Active. In addition, the Activity entry with HEK293 [9] was “Dose-Dependent Effect”; in [10], “Dose-Dependent Effect”; in the data set on HEK293 [12] it was “Toxic”; with HEK293 [14] it was “Toxic”.

`C[C@H](CCC(=O)O)[C@H]1CC[C@H]2[C@@H]3[C@@H](O)C[C@@H]4C[C@H](O)CC[C@]4(C)[C@H]3CC[C@]12C` [URSODIOL]: the Activity entry with HEK293 [2] is given as “Non-Toxic”. Further, in the data set on HEK293 [6], the result was inactive.
